Data: patent publication US6518243B1, “Desleucyl glycopeptide antibiotics and methods of making same” (Trustees of Princeton University, priority 1999, dated 2003)

Assays:
S. aureus (ATCC 29213) = assay: Zone of inhibition screen, 96 well agar array format; format: cell-based; parameters: scale not given here; details: zone of inhibition relative to 1 mg/ml stock solution of p-chlorobiphenylvancomycin
Method in brief: (§1)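 Agar-array screen, 96-well; single compounds vs. strain panel (panel also incl. E. faecium ATCC 49624); antibacterial activity scored.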

E. faecalis (CL 4877) = assay: as above; format: cell-based; parameters: scale not given here; details: zone of inhibition relative to 1 mg/ml stock solution of p-chlorobiphenylvancomycin
Method in brief: as §1

S. Aureus ATCC 33591 = assay: MIC determination in BHI media, OD600; format: cell-based; details: BHI + 0.1% casamino acids, 18 hours at 37° C., ≧90% OD600 inhibition
Method in brief: (§2)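 Inoculum ~5×10^5 CFU/ml from log-phase culture; compounds in DMSO, serial dilution; 18 h, 37° C; plate read for growth, MIC called per concentration.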

E. faecium ATCC 49624 = assay: MIC determination in BHI media, OD600; format: cell-based; details: BHI + 0.1% casamino acids, 18 hours at 37° C., ≧90% OD600 inhibition
Method in brief: as §2

E. faecalis ATCC 29212 = assay: MIC determination in BHI media, OD600; format: cell-based; details: BHI + 0.1% casamino acids, 18 hours at 37° C., ≧90% OD600 inhibition
Method in brief: as §2

S aureus ATCC 29213 = assay: MIC determination in BHI media, OD600; format: cell-based; details: BHI + 0.1% casamino acids, 18 hours at 37° C., ≧90% OD600 inhibition
Method in brief: as §2

E. faceium (ATCC 49624) = assay: Zone of inhibition screen, 96 well agar array format;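 note: score 3 means fourfold and score 4 sixteenfold the reference zone size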; format: cell-based, E. faecium; details: zone of inhibition relative to 1 mg/ml stock solution of p-chlorobiphenylvancomycin
Method in brief: as §1

E. faecium CL 4931 = assay: MIC determination in BHI media, OD600; format: cell-based; details: BHI + 0.1% casamino acids, 18 hours at 37° C., ≧90% OD600 inhibition
Method in brief: as §2

| Structure (SMILES) | zone score, S. aureus ATCC 29213 (S. aureus (ATCC 29213)) | zone score, E. faecalis CL 4877 (E. faecalis (CL 4877)) | MIC S. aureus ATCC 33591 (S. Aureus ATCC 33591) [µg/mL] | MIC E. faecium ATCC 49624 (E. faecium ATCC 49624) [µg/mL] | MIC E. faecalis ATCC 29212 (E. faecalis ATCC 29212) [µg/mL] | MIC S. aureus ATCC 29213 (S aureus ATCC 29213) [µg/mL] | zone score, E. faecium ATCC 49624 (E. faceium (ATCC 49624)) | MIC E. faecium CL 4931 (E. faecium CL 4931) [µg/mL] |
| --- | --- | --- | --- | --- | --- | --- | --- | --- |
| C[C@H]1O[C@H](O[C@H]2[C@H](Oc3c4cc5cc3Oc3ccc(cc3Cl)[C@@H](O)[C@@H](NC(=O)[C@@H](N)Cc3ccccc3)C(=O)N[C@@H](CC(N)=O)C(=O)N[C@H]5C(=O)N[C@H]3C(=O)N[C@H](C(=O)N[C@@H](C(=O)O)c5cc(O)cc(O)c5-c5cc3ccc5O)[C@H](O)c3ccc(c(Cl)c3)O4)O[C@H](CO)[C@@H](O)[C@@H]2O)C[C@@](C)(NCc2ccc(-c3ccc(Cl)cc3)cc2)[C@H]1O [Compound 7] | 2 | 2 | 0.39 | 0.12 | 0.78 | 0.39 | – | – |
| CSCC[C@@H](N)C(=O)N[C@H]1C(=O)N[C@@H](CC(N)=O)C(=O)N[C@H]2C(=O)N[C@H]3C(=O)N[C@H](C(=O)N[C@@H](C(=O)O)c4cc(O)cc(O)c4-c4cc3ccc4O)[C@H](O)c3ccc(c(Cl)c3)Oc3cc2cc(c3O[C@@H]2O[C@H](CO)[C@@H](O)[C@H](O)[C@H]2O[C@@H]2C[C@@](C)(NCc3ccc(-c4ccc(Cl)cc4)cc3)[C@@H](O)[C@@H](C)O2)Oc2ccc(cc2Cl)[C@H]1O [Compound 15] | – | 2 | 0.12 | 0.12 | 0.25 | 0.25 | – | – |
| CC(C)[C@H](N)C(=O)N[C@H]1C(=O)N[C@@H](CC(N)=O)C(=O)N[C@H]2C(=O)N[C@H]3C(=O)N[C@H](C(=O)N[C@@H](C(=O)O)c4cc(O)cc(O)c4-c4cc3ccc4O)[C@H](O)c3ccc(c(Cl)c3)Oc3cc2cc(c3O[C@@H]2O[C@H](CO)[C@@H](O)[C@H](O)[C@H]2O[C@@H]2C[C@@](C)(NCc3ccc(-c4ccc(Cl)cc4)cc3)[C@@H](O)[C@@H](C)O2)Oc2ccc(cc2Cl)[C@H]1O [Compound 20] | – | – | 0.39 | 0.25 | 0.78 | 0.25 | 2 | – |
| CC(N)C(=O)NCC(=O)NC1C(=O)NC(CC(N)=O)C(=O)NC2C(=O)NC3C(=O)NC(C(=O)NC(C(=O)O)c4cc(O)cc(O)c4-c4cc3ccc4O)C(O)c3ccc(c(Cl)c3)Oc3cc2cc(c3OC2OC(CO)C(O)C(O)C2OC2CC(C)(NCc3ccc(-c4ccc(Cl)cc4)cc3)C(O)C(C)O2)Oc2ccc(cc2Cl)C1O (centres unmarked) [Compound 36] | – | – | 0.39 | 0.12 | 0.78 | 0.39 | 2 | – |
| CSCCC(N)C(=O)NC1C(=O)NC(CC(N)=O)C(=O)NC2C(=O)NC3C(=O)NC(C(=O)NC(C(=O)O)c4cc(O)cc(O)c4-c4cc3ccc4O)C(O)c3ccc(c(Cl)c3)Oc3cc2cc(c3OC2OC(CO)C(O)C(O)C2OC2CC(C)(NCc3ccc(-c4ccc(Cl)cc4)cc3)C(O)C(C)O2)Oc2ccc(cc2Cl)C1O (centres unmarked) [Compound 41] | – | 2 | 0.39 | 0.25 | 0.78 | 0.39 | 2 | – |
| CCCCC(N)C(=O)NC1C(=O)NC(CC(N)=O)C(=O)NC2C(=O)NC3C(=O)NC(C(=O)NC(C(=O)O)c4cc(O)cc(O)c4-c4cc3ccc4O)C(O)c3ccc(c(Cl)c3)Oc3cc2cc(c3OC2OC(CO)C(O)C(O)C2OC2CC(C)(NCc3ccc(-c4ccc(Cl)cc4)cc3)C(O)C(C)O2)Oc2ccc(cc2Cl)C1O (centres unmarked) [Compound 42] | – | – | 0.39 | 0.39 | 0.78 | 0.39 | 2 | – |
| CC(NCC(N)C(=O)NC1C(=O)NC(CC(N)=O)C(=O)NC2C(=O)NC3C(=O)NC(C(=O)NC(C(=O)O)c4cc(O)cc(O)c4-c4cc3ccc4O)C(O)c3ccc(c(Cl)c3)Oc3cc2cc(c3OC2OC(CO)C(O)C(O)C2OC2CC(C)(NCc3ccc(-c4ccc(Cl)cc4)cc3)C(O)C(C)O2)Oc2ccc(cc2Cl)C1O)=C1C(=O)CC(C)(C)CC1=O (centres unmarked) [Compound 56] | – | – | 0.25 | 0.12 | 0.78 | 0.25 | 2 | – |
| CC1OC(OC2C(Oc3c4cc5cc3Oc3ccc(cc3Cl)C(O)C3NC(=O)C(NC(=O)C5NC(=O)C(CC(N)=O)NC(=O)C(NC(=O)C(N)CCCNC(=O)c5cnccn5)C(O)c5ccc(c(Cl)c5)O4)c4ccc(O)c(c4)-c4c(O)cc(O)cc4C(C(=O)O)NC3=O)OC(CO)C(O)C2O)CC(C)(NCc2ccc(-c3ccc(Cl)cc3)cc2)C1O (centres unmarked) [Compound 83] | 2 | – | 0.78 | 0.25 | 0.78 | 0.39 | 2 | 25 |
| CCOC(=O)NC(CC(N)=O)C(=O)NC1C(=O)NC(CC(N)=O)C(=O)NC2C(=O)NC3C(=O)NC(C(=O)NC(C(=O)O)c4cc(O)cc(O)c4-c4cc3ccc4O)C(O)c3ccc(c(Cl)c3)Oc3cc2cc(c3OC2OC(CO)C(O)C(O)C2OC2CC(C)(NCc3ccc(-c4ccc(Cl)cc4)cc3)C(O)C(C)O2)Oc2ccc(cc2Cl)C1O (centres unmarked) [Compound 188] | 2 | 2 | 0.39 | 0.062 | 0.39 | 0.39 | – | – |
| CC1OC(OC2C(Oc3c4cc5cc3Oc3ccc(cc3Cl)C(O)C3NC(=O)C(NC(=O)C5NC(=O)C(CC(N)=O)NC(=O)C(NC(=O)C(N)CSC(C)(C)C)C(O)c5ccc(c(Cl)c5)O4)c4ccc(O)c(c4)-c4c(O)cc(O)cc4C(C(=O)O)NC3=O)OC(CO)C(O)C2O)CC(C)(NCc2ccc(-c3ccc(Cl)cc3)cc2)C1O (centres unmarked) [Compound 334] | – | – | 0.25 | 0.12 | 0.78 | 0.25 | – | 25 |
| CNC(CC(C)C)C(=O)NC1C(=O)NC(CC(N)=O)C(=O)NC2C(=O)NC3C(=O)NC(C(=O)NC(C(=O)O)c4cc(O)cc(O)c4-c4cc3ccc4O)C(O)c3ccc(c(Cl)c3)Oc3cc2cc(c3OC2OC(CO)C(O)C(O)C2OC2CC(C)(NCc3ccc(-c4ccc(Cl)cc4)cc3)C(O)C(C)O2)Oc2ccc(cc2Cl)C1O (centres unmarked) [Compound 517, Cl-Biphenyl Vancomycin, reference compound] | – | – | 0.25 | 0.062 | 0.25 | 0.25 | – | – |
| CNC(CC(C)C)C(=O)NC1C(=O)NC(CC(N)=O)C(=O)NC2C(=O)NC3C(=O)NC(C(=O)NC(C(=O)O)c4cc(O)cc(O)c4-c4cc3ccc4O)C(O)c3ccc(c(Cl)c3)Oc3cc2cc(c3OC2OC(CI)C(O)C(O)C2OC2CC(C)(NCc3ccc(-c4ccc(Cl)cc4)cc3)C(O)C(C)O2)Oc2ccc(cc2Cl)C1O (centres unmarked) [Compound 520] | – | – | 0.78 | 0.12 | 0.78 | 0.78 | – | – |
| CC1OC(OC2C(Oc3c4cc5cc3Oc3ccc(cc3Cl)C(O)C3NC(=O)C(NC(=O)C5NC(=O)C(CC(N)=O)NC(=O)C(NC(=O)C(N)COC(C)(C)C)C(O)c5ccc(c(Cl)c5)O4)c4ccc(O)c(c4)-c4c(O)cc(O)cc4C(C(=O)O)NC3=O)OC(CN)C(O)C2O)CC(C)(NCc2ccc(-c3ccc(Cl)cc3)cc2)C1O (centres unmarked) [Compound 521] | – | – | 0.78 | 0.12 | 0.78 | 0.78 | – | – |
| CNC(CC(C)C)C(=O)NC1C(=O)NC(CC(N)=O)C(=O)NC2C(=O)NC3C(=O)NC(C(=O)NC(C(=O)O)c4cc(O)cc(O)c4-c4cc3ccc4O)C(O)c3ccc(c(Cl)c3)Oc3cc2cc(c3OC2OC(CN)C(O)C(O)C2OC2CC(C)(NCc3ccc(-c4ccc(Cl)cc4)cc3)C(O)C(C)O2)Oc2ccc(cc2Cl)C1O (centres unmarked) [Compound 523] | – | – | 0.39 | 0.12 | 0.25 | 0.78 | – | – |
| CNC(COC(C)(C)C)C(=O)NC1C(=O)NC(CC(N)=O)C(=O)NC2C(=O)NC3C(=O)NC(C(=O)NC(C(=O)O)c4cc(O)cc(O)c4-c4cc3ccc4O)C(O)c3ccc(c(Cl)c3)Oc3cc2cc(c3OC2OC(CO)C(O)C(O)C2OC2CC(C)(NCc3ccc(-c4ccc(Cl)cc4)cc3)C(O)C(C)O2)Oc2ccc(cc2Cl)C1O (centres unmarked) [Compound 526] | – | – | 0.39 | 0.25 | 0.78 | 0.39 | – | 25 |
| CC(C)OCC(N)C(=O)NC1C(=O)NC(CC(N)=O)C(=O)NC2C(=O)NC3C(=O)NC(C(=O)NC(C(=O)O)c4cc(O)cc(O)c4-c4cc3ccc4O)C(O)c3ccc(c(Cl)c3)Oc3cc2cc(c3OC2OC(CO)C(O)C(O)C2OC2CC(C)(NCc3ccc(-c4ccc(Cl)cc4)cc3)C(O)C(C)O2)Oc2ccc(cc2Cl)C1O (centres unmarked) [Compound 528] | – | – | 0.25 | 0.12 | 0.78 | 0.25 | – | 25 |
| CC(C)OCC(N)C(=O)NC1C(=O)NC(CC(N)=O)C(=O)NC2C(=O)NC3C(=O)NC(C(=O)NC(C(=O)O)c4cc(O)cc(O)c4-c4cc3ccc4O)C(O)c3ccc(c(Cl)c3)Oc3cc2cc(c3OC2OC(CO)C(O)C(O)C2OC2CC(C)(NCc3ccc(-c4ccc(Cl)cc4)cc3)C(O)C(C)O2)Oc2ccc(cc2Cl)C1O (centres unmarked) [Compound 529] | – | – | 0.25 | 0.12 | 0.78 | 0.25 | – | 25 |
